Test results from ChEMBL document CHEMBL1126433 (Bioorg Med Chem Lett, 1992).
Each block holds one molecule with its values, some of them ahead of it. Calls of active or inactive are those of the source. No cut-off for these calls is given here.

Tests used:
[1] = target: T1, Polyunsaturated fatty acid 5-lipoxygenase (Rattus norvegicus) (UniProt P12527); assay: Compound was evaluated for its inhibitory activity against 5-LO (5-lipoxygenase) at 10 uM concentration in intact RBL-1 cell line assay; type: cell-based
T1 sequence (whole entry): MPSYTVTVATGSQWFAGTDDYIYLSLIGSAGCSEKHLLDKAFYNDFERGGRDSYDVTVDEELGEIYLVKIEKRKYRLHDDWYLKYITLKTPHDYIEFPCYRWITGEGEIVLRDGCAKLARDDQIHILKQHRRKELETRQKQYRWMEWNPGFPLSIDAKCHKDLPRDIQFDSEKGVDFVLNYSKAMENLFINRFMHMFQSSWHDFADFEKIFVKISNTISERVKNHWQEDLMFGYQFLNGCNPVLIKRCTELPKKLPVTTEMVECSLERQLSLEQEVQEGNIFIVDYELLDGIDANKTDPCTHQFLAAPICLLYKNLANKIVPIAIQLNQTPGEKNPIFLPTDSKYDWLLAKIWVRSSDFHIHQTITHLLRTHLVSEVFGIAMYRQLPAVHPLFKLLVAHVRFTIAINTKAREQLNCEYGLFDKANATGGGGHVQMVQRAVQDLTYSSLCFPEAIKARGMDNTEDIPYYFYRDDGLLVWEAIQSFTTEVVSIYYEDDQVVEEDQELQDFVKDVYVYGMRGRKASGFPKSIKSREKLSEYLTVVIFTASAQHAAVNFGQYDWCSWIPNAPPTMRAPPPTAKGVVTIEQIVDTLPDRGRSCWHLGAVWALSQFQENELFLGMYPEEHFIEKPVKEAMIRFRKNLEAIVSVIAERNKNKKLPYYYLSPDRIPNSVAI

[2] = target: T2, Cyclooxygenase (Rattus norvegicus) (UniProt P35355+Q63921); assay: Compound was evaluated for its inhibitory activity against CO(cyclooxygenase) at 10 uM concentration in intact RBL-1 cell line assay; type: cell-based
Cyclooxygenase [3] = target: T3, Cyclooxygenase (Rattus norvegicus, UniProt P35355+Q63921); assay: Compound was evaluated for its inhibitory activity against CO(cyclooxygenase); type: protein assay
T3 sequence (P35355 whole entry): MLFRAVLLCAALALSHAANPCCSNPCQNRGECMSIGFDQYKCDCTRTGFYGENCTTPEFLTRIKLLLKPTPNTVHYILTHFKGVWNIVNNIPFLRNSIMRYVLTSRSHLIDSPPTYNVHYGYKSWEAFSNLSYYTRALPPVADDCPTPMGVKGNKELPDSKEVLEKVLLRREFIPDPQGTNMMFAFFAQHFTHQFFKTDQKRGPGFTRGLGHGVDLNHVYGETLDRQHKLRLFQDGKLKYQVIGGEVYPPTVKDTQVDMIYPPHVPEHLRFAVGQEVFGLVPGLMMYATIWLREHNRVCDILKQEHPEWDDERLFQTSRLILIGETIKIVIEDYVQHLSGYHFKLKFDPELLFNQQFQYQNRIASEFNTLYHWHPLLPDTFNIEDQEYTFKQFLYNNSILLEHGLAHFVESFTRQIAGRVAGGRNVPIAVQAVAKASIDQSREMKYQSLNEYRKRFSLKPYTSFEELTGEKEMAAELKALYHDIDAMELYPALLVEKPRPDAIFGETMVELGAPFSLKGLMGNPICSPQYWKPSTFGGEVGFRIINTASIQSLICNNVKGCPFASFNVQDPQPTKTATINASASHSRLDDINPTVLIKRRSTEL
T3 sequence (Q63921 whole entry): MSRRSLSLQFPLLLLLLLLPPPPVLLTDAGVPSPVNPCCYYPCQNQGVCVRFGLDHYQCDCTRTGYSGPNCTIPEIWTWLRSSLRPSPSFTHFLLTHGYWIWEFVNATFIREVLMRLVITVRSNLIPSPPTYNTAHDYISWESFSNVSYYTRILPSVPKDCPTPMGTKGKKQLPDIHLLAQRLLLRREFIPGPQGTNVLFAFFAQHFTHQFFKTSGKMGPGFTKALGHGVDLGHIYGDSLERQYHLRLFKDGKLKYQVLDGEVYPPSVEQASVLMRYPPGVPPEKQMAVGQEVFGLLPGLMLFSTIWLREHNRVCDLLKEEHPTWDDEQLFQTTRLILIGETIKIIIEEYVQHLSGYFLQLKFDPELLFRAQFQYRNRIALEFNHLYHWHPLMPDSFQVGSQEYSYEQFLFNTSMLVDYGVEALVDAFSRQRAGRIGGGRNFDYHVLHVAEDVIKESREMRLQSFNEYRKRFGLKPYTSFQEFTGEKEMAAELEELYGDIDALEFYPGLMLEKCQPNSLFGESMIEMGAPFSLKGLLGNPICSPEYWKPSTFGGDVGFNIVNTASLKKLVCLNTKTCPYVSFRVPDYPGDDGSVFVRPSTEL

[4] = target: T4, Polyunsaturated fatty acid 5-lipoxygenase (Rattus norvegicus, UniProt P12527); assay: Compound was evaluated for its inhibitory activity against 5-LO (5-lipoxygenase) in intact RBL-1 cell line assay; type: cell-based
T4 sequence (P12527 whole entry): T1 sequence (whole entry)

Cyclooxygenase [5] = target: T3, Cyclooxygenase; assay: Compound was evaluated for its inhibitory activity against CO(cyclooxygenase) in intact RBL-1 cell line assay; type: cell-based
[6] = target: T2, Cyclooxygenase (Rattus norvegicus); assay: Compound was evaluated for its inhibitory activity against CO(cyclooxygenase) at 10 uM concentration in intact RBL-1 cell line assay; Less than 5% inhibition at 10 uM reported as not active; type: cell-based
[7] = target: T1, Polyunsaturated fatty acid 5-lipoxygenase (Rattus norvegicus); assay: Compound was evaluated for its inhibitory activity against 5-LO (5-lipoxygenase) at 10 uM concentration in intact RBL-1 cell line assay; Less than 5% inhibition at 10 uM reported as not active; type: cell-based

Compound: Cc1ccc(Cl)c(Nc2ccccc2/C=C2\SC(N)=NC2=O)c1Cl
inhibition [1]: 35%
inhibition [2]: 20%

Compound: Cc1ccc(Cl)c(Nc2ccccc2/C=C2\SC(=S)NC2=O)c1Cl
IC50 (Cyclooxygenase [3]): 6000 nM

Compound: COc1ccc2c(c1)c(/C=C1/SC(=S)NC1=O)c(C)n2C(=O)c1ccc(Cl)cc1
IC50 [4]: 1400 nM
IC50 (Cyclooxygenase [5]): 2000 nM

Compound: COc1ccc2c(c1)c(CC(=O)O)c(C)n2C(=O)c1ccc(Cl)cc1 [INDOMETHACIN]
IC50 [4]: > 100000 nM

The next lines start with the values.

inhibition [2]: 33%
Compound: Cc1ccc(Cl)c(Nc2ccccc2/C=C2\SC(=S)N(CC(=O)O)C2=O)c1Cl

inhibition [1]: 30%
inhibition [6]: inactive
Compound: Cc1ccc(Cl)c(Nc2ccccc2/C=C2\SC(=O)NC2=O)c1Cl

inhibition [7]: inactive
inhibition [2]: 32%
Compound: Cc1ccc(Cl)c(Nc2ccccc2/C=C2\SC(=S)N(C)C2=O)c1Cl

IC50 [4]: 1500 nM
IC50 (Cyclooxygenase [5]): 10200 nM
Compound: Cc1ccc(Cl)c(Nc2ccccc2/C=C2\SC(NC#N)=NC2=O)c1Cl
